According to US9975852B2, “Quinoline sulfonyl derivatives and uses thereof” (Health Sciences North Research Institute, priority 2013, dated 2018):
Read-outs that look alike come from different tables or passages of the source.

Tests used:
[1] = test system: 184B5; assay: SRB antiproliferative assay, 184B5 non-cancer breast cells; type: cell-based, human; conditions: Homo sapiens, read-out: GI50 184B5
Procedure: (§1) Antiproliferative effects were determined by a sulforhodamine B (SRB) based protocol. For a typical screening experiment, 5,000-10,000 cells were inoculated into 100 μl medium per well of a 96-well microtiter plate as described previously. […] Some of the sample wells were fixed with 25 μl of 50% trichloroacetic acid (TCA) as a control of the cell population for each cell line at the time of drug addition (Tz). An aliquot of the frozen stock was thawed and diluted to the desired final maximum test-concentration with complete medium. Two to ten-fold serial dilutions were made to provide a total of seven drug concentrations (and a control [C]). Following addition of drugs, the culture plate was incubated for additional 48 h. Cells were fixed in situ by slowly adding 25 μl of ice-cold 50% (w/v) TCA (final concentration, 10% TCA), and were then incubated for 60 min at 4° C. The supernatant was discarded, and the plate was washed five times with tap water, followed by air-dry. 50 μl of SRB solution at 0.4% (w/v) in 1% acetic acid was added to each well, and the plate was incubated for >30 min at room temperature. Unbound SRB was removed by five washes with tap water, followed by air-drying. […] The relative growth rate (%) was calculated for each of the compound concentrations according to the following formula: (Ti−Tz)/(C−Tz)×100 In the formula, time zero (Tz), control growth (C), and OD for different concentration of tested compounds (Ti). The GI50 for each compound was obtained from a non-linear Sigmoidal dose-response (variable slope) curve which is fitted by GraphPad Prism™ v.4.03 software. Values were calculated for each of these parameters if the level of activity was reached. However, if the effect was not reached or was exceeded, the value for that parameter was expressed as greater or less than the maximum or minimum concentration tested. Flow Cytometry

[2] = test system: MDA-MB231; assay: SRB antiproliferative assay, MDA-MB231; type: cell-based, human; conditions: Homo sapiens, MDA-MB-231, 48 h
Procedure: as §1

[3] = test system: MDA-MB468; assay: SRB antiproliferative assay, MDA-MB468; type: cell-based, human; conditions: Homo sapiens, MDA-MB-468, 48 h
Procedure: as §1

[4] = test system: MCF7; assay: SRB antiproliferative assay, MCF7; type: cell-based, human; conditions: Homo sapiens, MCF7; SRB, 48 h; read-out: GI50 MCF7
Procedure: as §1

| SMILES | GI50 ([1]; 184B5, SRB, 48 h) | melting point | GI50 [2] | GI50 [3] | GI50 [4] | GI50 ([1]; 184B5, 48 h) |
| --- | --- | --- | --- | --- | --- | --- |
| CN(C)c1cccc2c(S(=O)(=O)NCCCNc3ccnc4cc(C(F)(F)F)ccc34)cccc12 [Compound 28, 5-Dimethylamino-naphthalene-1-sulfonic acid [3-(7-trifluoromethyl-quinolin-4-ylamino)-propyl]-amide] | 3.73 ± 0.21 µM | 199 to 201 °C | 14.2 ± 0.98 µM | 9.71 ± 0.33 µM | 7.73 ± 0.61 µM | – |
| O=S(=O)(c1ccc(-c2ccccc2)cc1)N1CCN(c2ccnc3cc(Cl)ccc23)CC1 [Compound 3, 7-Chloro-4-(4-(biphenylsulfonyl)piperazin-1-yl)quinoline] | 16.4 ± 0.23 µM | 238 to 240 °C | 26.2 ± 0.62 µM | 18.2 ± 0.54 µM | 9.23 ± 0.21 µM | – |
| O=S(=O)(NCCCNc1ccnc2cc(C(F)(F)F)ccc12)c1ccc(Cl)cc1Cl [Compound 30, 2,4-Dichloro-N-[3-(7-trifluoromethyl-quinolin-4-ylamino)-propyl]-benzenesulfonamide] | 3.22 ± 0.08 µM | 117 to 119 °C | 6.97 ± 0.54 µM | 3.94 ± 0.12 µM | 5.18 ± 0.29 µM | – |
| O=[N+]([O-])c1ccc(S(=O)(=O)N2CCN(c3ccnc4cc(C(F)(F)F)ccc34)CC2)c([N+](=O)[O-])c1 [Compound 12, 4-[4-(2,4-Dinitro-benzenesulfonyl)-piperazin-1-yl]-7-trifluoromethyl-quinoline] | – | 178 to 180 °C | 24.3 ± 0.63 µM | 19.2 ± 0.61 µM | 10.8 ± 0.12 µM | 37.78 ± 0.35 µM |
| Cc1ccc(S(=O)(=O)NCCCNc2ccnc3cc(Cl)ccc23)cc1 [Compound 16, N-[3-(7-Chloro-quinolin-4-ylamino)-propyl]-4-methyl-benzenesulfonamide] | 9.56 ± 0.53 µM | – | 6.16 ± 0.51 µM | 5.77 ± 0.41 µM | 5.25 ± 0.45 µM | – |
| Cc1ccc(S(=O)(=O)NCCCNc2ccnc3cc(C(F)(F)F)ccc23)cc1 [Compound 24, 4-Methyl-N-[3-(7-trifluoromethyl-quinolin-4-ylamino)-propyl]-benzenesulfonamide] | 12.2 ± 0.86 µM | 77 to 79 °C | 6.36 ± 0.48 µM | 6.21 ± 0.42 µM | 6.9 ± 0.45 µM | – |
| CS(=O)(=O)N1CCN(c2ccnc3cc(C(F)(F)F)ccc23)CC1 [Compound 11, 4-(4-Methanesulfonyl-piperazin-1-yl)-7-trifluoromethyl-quinoline] | 93.93 ± 0.89 µM | 116 to 118 °C | 44.4 ± 0.85 µM | 28.6 ± 0.69 µM | 25.6 ± 0.26 µM | – |
| O=S(=O)(c1ccc(Cl)cc1Cl)N1CCN(c2ccnc3cc(Cl)ccc23)CC1 [Compound 5, 7-Chloro-4-(4-(2,4-dichlorophenylsulfonyl)piperazin-1-yl)quinoline] | 12.4 ± 0.15 µM | 145 to 147 °C | 40.6 ± 0.81 µM | 21.6 ± 0.61 µM | 13.5 ± 0.23 µM | – |
| COC(=O)c1sccc1S(=O)(=O)N1CCN(c2ccnc3cc(Cl)ccc23)CC1 [Compound 2, Methyl 3-(4-(7-chloroquinolin-4-yl)piperazin-1-ylsulfonyl)thiophene-2-carboxylate] | 15.2 ± 0.18 µM | 117 to 119 °C | 40.4 ± 0.82 µM | 30.2 ± 0.71 µM | 22.37 ± 0.21 µM | – |
| O=S(=O)(NCCCNc1ccnc2cc(Cl)ccc12)c1ccc(Cl)cc1Cl [Compound 21, 2,4-Dichloro-N-[3-(7-chloro-quinolin-4-ylamino)-propyl]-benzenesulfonamide] | 3.55 ± 0.21 µM | 145 to 147 °C | 6.76 ± 0.55 µM | 3.61 ± 0.12 µM | 4.04 ± 0.22 µM | – |
| O=[N+]([O-])c1cccc(S(=O)(=O)NCCCNc2ccnc3cc(Cl)ccc23)c1 [Compound 18, N-(3-(7-Chloroquinolin-4-ylamino)propyl)-3-nitrobenzenesulfonamide] | 15.8 ± 0.88 µM | – | 20.4 ± 1.15 µM | 9.21 ± 0.65 µM | 8.62 ± 0.38 µM | – |
| O=S(=O)(c1ccc(Cl)cc1Cl)N1CCN(c2ccnc3cc(C(F)(F)F)ccc23)CC1 [Compound 10, 4-[4-(2,4-Dichloro-benzenesulfonyl)-piperazin-1-yl]-7-trifluoromethyl-quinoline] | 20.4 ± 0.23 µM | 137 to 139 °C | 20.3 ± 0.53 µM | 18.6 ± 0.55 µM | 16.7 ± 0.19 µM | – |
| O=S(=O)(NCCCNc1ccnc2cc(Cl)ccc12)c1ccc(-c2ccccc2)cc1 [Compound 20, Biphenyl-4-sulfonic acid [3-(7-chloro-quinolin-4-ylamino)-propyl]-amide] | 2.41 ± 0.09 µM | 116 to 118 °C | 4.63 ± 0.42 µM | 4.46 ± 0.37 µM | 2.47 ± 0.23 µM | – |
| COC(=O)c1sccc1S(=O)(=O)NCCCNc1ccnc2cc(C(F)(F)F)ccc12 [Compound 31, N-(3-(7-Trifluoromethyl-quinolin-4-ylamino)propyl)thiophene-3-sulfonamide-2-carbomethoxy ester] | 12.1 ± 0.45 µM | 137 to 139 °C | 7.48 ± 0.63 µM | 4.55 ± 0.25 µM | 4.33 ± 0.23 µM | – |
| O=S(=O)(NCCCNc1ccnc2cc(Cl)ccc12)c1ccc(Cl)cc1 [Compound 19, 4-Chloro-N-(3-(7-chloroquinolin-4-ylamino)propyl)benzenesulfonamide] | 6.36 ± 0.34 µM | – | 11.8 ± 0.91 µM | 8.34 ± 0.73 µM | 4.31 ± 0.32 µM | – |
| CN(C)c1cccc2c(S(=O)(=O)N3CCN(c4ccnc5cc(C(F)(F)F)ccc45)CC3)cccc12 [Compound 13, Dimethyl-{5-[4-(7-trifluoromethyl-quinolin-4-yl)-piperazine-1-sulfonyl]-naphthalen-1-yl}-amine] | 12 ± 0.15 µM | 98 to 100 °C | 22 ± 0.59 µM | 19 ± 0.55 µM | 12.8 ± 0.21 µM | – |
| O=S(=O)(c1ccc(Cl)cc1)N1CCN(c2ccnc3cc(C(F)(F)F)ccc23)CC1 [Compound 7, 4-[4-(4-Chloro-benzenesulfonyl)-piperazin-1-yl]-7-trifluoromethyl-quinoline] | – | 144 to 146 °C | 41.4 ± 0.83 µM | 34.9 ± 0.78 µM | 27.36 ± 0.27 µM | – |
| O=[N+]([O-])c1cccc(S(=O)(=O)N2CCN(c3ccnc4cc(C(F)(F)F)ccc34)CC2)c1 [Compound 6, 4-[4-(3-Nitro-benzenesulfonyl)-piperazin-1-yl]-7-trifluoromethyl-quinoline] | 17.7 ± 0.21 µM | 199 to 201 °C | 32.2 ± 0.68 µM | 18.6 ± 0.57 µM | 9.44 ± 0.25 µM | – |
| O=[N+]([O-])c1ccc(S(=O)(=O)NCCCNc2ccnc3cc(C(F)(F)F)ccc23)c([N+](=O)[O-])c1 [Compound 25, 2,4-Dinitro-N-[3-(7-trifluoromethyl-quinolin-4-ylamino)-propyl]-benzenesulfonamide] | – | 198 to 200 °C | 8.91 ± 0.77 µM | 8.46 ± 0.41 µM | 5.56 ± 0.34 µM | 15.9 ± 0.89 µM |
| CN(C)c1cccc2c(S(=O)(=O)N3CCN(c4ccnc5cc(Cl)ccc45)CC3)cccc12 [Compound 4, 5-(4-(7-Chloroquinolin-4-yl)piperazin-1-ylsulfonyl)-N,N-dimethylnaphthalen-1-amine] | 28.25 ± 0.26 µM | 145 to 147 °C | 35 ± 0.76 µM | 27.5 ± 0.66 µM | – | – |
| CS(=O)(=O)NCCCNc1ccnc2cc(Cl)ccc12 [Compound 15, N-[3-(7-Chloro-quinolin-4-ylamino)-propyl]-methanesulfonamide] | 23.3 ± 0.92 µM | – | 40.9 ± 1.52 µM | 28.6 ± 1.03 µM | 23.1 ± 0.87 µM | – |
